The results in this text go back to patent publication US20180008587A1, “THIOHYDANTOIN ANDROGEN RECEPTOR ANTAGONISTS FOR THE TREATMENT OF CANCER” (Jaressen Pharmaceutica NV, priority 2016, published 2018).

What all share (format): cell-based
The target in experiment [1] is T1, wild-type Androgen Receptor (AR-wt) (Homo sapiens, UniProt P10275).
T1 construct: expressed in transfected cells; host or cells: LNCaP (LNCaP AR (cs))
T1 sequence (P10275 1-920): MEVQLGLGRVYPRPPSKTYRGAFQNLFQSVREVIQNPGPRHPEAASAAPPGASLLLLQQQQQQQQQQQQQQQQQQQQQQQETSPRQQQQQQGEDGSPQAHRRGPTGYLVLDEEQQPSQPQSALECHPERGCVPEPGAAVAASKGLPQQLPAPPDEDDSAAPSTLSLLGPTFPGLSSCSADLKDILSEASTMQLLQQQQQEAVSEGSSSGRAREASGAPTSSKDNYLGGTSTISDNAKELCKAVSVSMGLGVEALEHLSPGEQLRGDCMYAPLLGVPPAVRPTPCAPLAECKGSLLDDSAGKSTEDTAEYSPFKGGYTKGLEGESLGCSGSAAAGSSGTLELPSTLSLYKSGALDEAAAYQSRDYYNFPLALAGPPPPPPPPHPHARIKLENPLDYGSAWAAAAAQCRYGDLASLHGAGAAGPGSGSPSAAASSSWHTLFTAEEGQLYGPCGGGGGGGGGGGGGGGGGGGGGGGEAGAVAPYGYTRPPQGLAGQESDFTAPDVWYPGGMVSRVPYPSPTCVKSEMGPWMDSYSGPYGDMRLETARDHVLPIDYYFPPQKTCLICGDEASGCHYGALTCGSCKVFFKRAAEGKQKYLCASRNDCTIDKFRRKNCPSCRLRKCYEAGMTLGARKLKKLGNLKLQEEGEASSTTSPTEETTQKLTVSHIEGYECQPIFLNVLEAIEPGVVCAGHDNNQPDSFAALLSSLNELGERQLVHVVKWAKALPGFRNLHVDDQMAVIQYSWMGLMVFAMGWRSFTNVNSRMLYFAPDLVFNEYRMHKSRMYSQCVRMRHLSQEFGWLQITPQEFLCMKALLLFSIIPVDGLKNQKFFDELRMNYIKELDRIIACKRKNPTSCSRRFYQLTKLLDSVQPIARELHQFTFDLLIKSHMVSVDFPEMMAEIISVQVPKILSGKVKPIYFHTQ
Description: LNCaP-AR-wt ANT reporter assay (ARE firefly luciferase, antagonist mode). As to conditions: for IC50: antagonist mode, 400 pM R-1881 challenge, −Log10(IC50 [Molar]), read-out: LNCaP-AR-wt ANT pIC50 (converted); for Emax: maximum % inhibition of R1881 control response over tested concentration range, read-out: LNCaP-AR-wt ANT MAX % Inh. In outline:
(§1)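 Read-out is luciferase luminescence taken 1 h after Steady-Glo addition, following 20-24 h compound exposure at 37 °C in LNCaP pools stably carrying wild-type or F876L AR. Cells were grown in charcoal-stripped serum. Antagonist wells received agonist at 400 pM (WT) or 600 pM (F876L).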
On the technique in general: In a reporter assay the amount or activity of a reporter protein is the signal.

In experiment [2] the target is T1, wild-type Androgen Receptor (AR-wt). Description: LNCaP-AR-wt AG reporter assay (ARE firefly luciferase, agonist mode). The conditions noted are these: for EC50: agonist mode, −Log10(EC50 [Molar]), read-out: LNCaP-AR-wt AG pEC50 (converted); for Emax: maximum % stimulation (agonist response) over tested concentration range, read-out: LNCaP-AR-wt AG MAX % Stim. In outline:
(§2)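 Puromycin-selected pooled LNCaP populations expressing AR-wt or AR-F876L are seeded in CSS medium and treated with compound for 20-24 h at 37 °C. For antagonist testing, agonist is added at 400 pM (WT) or 600 pM (F876L). Potency values derive from least-squares fitting of luminescence RLU.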

In experiment [3] the target is T2, F876L mutant Androgen Receptor (AR-F876L) (Homo sapiens, UniProt P10275, F877L).
T2 construct: expressed in transfected cells; host or cells: LNCaP (LNCaP F876L)
T2 sequence (P10275 1-920 F877L): T1 sequence (P10275 1-920) with F877L
Description: LNCaP-AR-F876L ANT reporter assay (ARE firefly luciferase, antagonist mode). As to conditions: for Emax: maximum % inhibition of R1881 control response over tested concentration range, read-out: LNCaP-AR-F876L ANT MAX % Inh; for IC50: read-out: LNCaP-AR-F876L ANT pIC50 (converted). In short, it runs like this: as §1

The target in experiment [4] is T2, F876L mutant Androgen Receptor (AR-F876L). Description: LNCaP-AR-F876L AG reporter assay (ARE firefly luciferase, agonist mode). The conditions noted are these: for EC50: agonist mode, −Log10(EC50 [Molar]), read-out: LNCaP-AR-F876L AG pEC50 (converted); for Emax: maximum % stimulation (agonist response) over tested concentration range, read-out: LNCaP-AR-F876L AG MAX % Stim. In short, it runs like this: as §2

Substitutions are numbered along the chain they refer to. A value given as a limit tells only on which side of the number the result lay.

Regarding `N#Cc1ncc(N2C(=O)C3(CCC3)N(c3ccc(C(=O)NCCCO)c(F)c3)C2=S)cc1C(F)(F)F` [Cpd 40, 4-[6-[6-cyano-5-(trifluoromethyl)-3-pyridyl]-5-oxo-7-thioxo-6,8-diazaspiro[3.4]octan-8-yl]-2-fluoro-N-(3-hydroxypropyl)benzamide], the IC50 in experiment [1] was 240 nM; in experiment [3] it was 162 nM. Besides, the Emax in experiment [1] was 101%; in experiment [2], -0.3%; in experiment [3], 99.5%; in experiment [4], 0.2%. Further, the EC50 in experiment [2] and in experiment [4] was over 15100 nM throughout.

For `CN1CCC(Oc2ccc(N3C(=S)N(c4cnc(C#N)c(C(F)(F)F)c4)C(=O)C34CCC4)cc2)CC1` [Cpd 85, 5-[8-[4-[(1-methyl-4-piperidyl)oxy]phenyl]-5-oxo-7-thioxo-6,8-diazaspiro[3.4]octan-6-yl]-3-(trifluoromethyl)pyridine-2-carbonitrile], the Emax in experiment [1] was found to be 101%; in experiment [2], 0.2%; in experiment [3], 99.8%; in experiment [4], 0.8%.

In the case of `N#Cc1ncc(N2C(=O)C3(CCC3)N(c3ccc(OC4CCNCC4)cc3)C2=S)cc1C(F)(F)F` [Cpd 35, 5-[5-oxo-8-[4-(4-piperidyloxy)phenyl]-7-thioxo-6,8-diazaspiro[3.4]octan-6-yl]-3-(trifluoromethyl)pyridine-2-carbonitrile], the IC50 in experiment [1] is 240 nM; in experiment [3], 145 nM. Besides, the Emax is 97.5% in experiment [1], -0.1% in experiment [2], 101% in experiment [3] and 0% in experiment [4]. The EC50 in experiment [2] and in experiment [4] was over 15100 nM in each case.
